Drawing on US20150191462A1, “PYRROLIDINE DERIVATIVES AND THEIR USE AS COMPLEMENT PATHWAY MODULATORS” (priority 2012, published 2015), this text covers IC50 for 11 compounds.

The test concerns the target Recombinant human factor D (Homo sapiens, UniProt P00746). Kind of test: Human Complement Factor D Assay: Method 1. The note with it: Factor D inhibition, 10 nM factor D, Z-Lys-thiobenzyl substrate, fluorescence readout. It counts as biochemical. Here is the method:
Human Complement Factor D Assay: Method 1 Recombinant human factor D (expressed in E. coli and purified using standard methods) at 10 nM concentration is incubated with test compound at various concentrations for 1 hour at room temperature in 0.1 M Hepes buffer, pH 7.5, containing 1 mM MgCl2, 1 M NaCl and 0.05% CHAPS. […] The increase in fluorescence is recorded at excitation of 485 nm and emission at 535 nm in a microplate spectrofluorimeter. IC50 values are calculated from percentage of inhibition of complement factor D-activity as a function of test compound concentration.

Chain of Recombinant human factor D (P00746 26-253): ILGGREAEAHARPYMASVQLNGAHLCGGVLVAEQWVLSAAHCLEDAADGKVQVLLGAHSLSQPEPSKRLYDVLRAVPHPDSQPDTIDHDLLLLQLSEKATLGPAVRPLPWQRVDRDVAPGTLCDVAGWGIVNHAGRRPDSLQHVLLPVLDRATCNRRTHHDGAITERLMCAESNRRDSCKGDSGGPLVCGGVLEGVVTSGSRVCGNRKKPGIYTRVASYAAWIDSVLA

The IC50 is the point on the concentration scale where inhibition reaches its midpoint. Regarding `CO[C@H]1[C@@H](C(=O)Nc2cccc(Br)n2)N(C(=O)Cn2nc(C(C)=O)c3ccncc32)C[C@@H]1F` [Example 18, (2S,3S,4S)-1-[2-(3-Acetyl-pyrazolo[3,4-c]pyridin-1-yl)-acetyl]-4-fluoro-3-methoxy-pyrrolidine-2-carboxylic acid (6-bromo-pyridin-2-yl)-amide], the IC50 is 7 nM.
In the case of `NC(=O)c1nn(CC(=O)N2CCS[C@H]2C(=O)Nc2cccc(Br)n2)c2ccccc12` [Example 25, (S)-N-(6-bromopyridin-2-yl)-3-(2-(3-carbamoyl-1H-indazol-1-yl)acetyl)thiazolidine-2-carboxamide] it was 10 nM; in that of `NC(=O)n1cc(NC(=O)N2CCS[C@H]2C(=O)Nc2cccc(Br)n2)c2ccccc21` [Example 39, (S)-N2-(6-bromopyridin-2-yl)-N3-(1-carbamoyl-1H-indol-3-yl)thiazolidine-2,3-dicarboxamide], 20 nM; in that of `CNC(=O)c1nn(CC(=O)N2[C@@H]3C[C@@H]3C[C@H]2C(=O)Nc2cccc(Br)n2)c2ccccc12` [Example 26, 1-(2-((1R,3S,5R)-3-((6-bromopyridin-2-yl)carbamoyl)-2-azabicyclo[3.1.0]hexan-2-yl)-2-oxoethyl)-N-methyl-1H-indazole-3-carboxamide], 40 nM.
For `Cc1cc2c(C(N)=O)nn(CC(=O)N3[C@@H]4C[C@@H]4C[C@H]3C(=O)Nc3cncc(C(F)(F)F)n3)c2c(C)n1` [Example 30, 5,7-dimethyl-1-(2-oxo-2-((1R,3S,5R)-3-((6-(trifluoromethyl)pyrazin-2-yl)carbamoyl)-2-azabicyclo[3.1.0]hexan-2-yl)ethyl)-1H-pyrazolo[3,4-c]pyridine-3-carboxamide], the IC50 came out at 80 nM.
For `CC(=O)c1nn(CC(=O)N2C[C@H](F)C[C@H]2C(=O)Nc2cccc(Br)n2)c2cnccc12` [Example 13, (2S,4R)-1-[2-(3-Acetyl-pyrazolo[3,4-c]pyridin-1-yl)-acetyl]-4-fluoro-pyrrolidine-2-carboxylic acid (6-bromo-pyridin-2-yl)-amide], the IC50 is 9 nM.
For the compound `NC(=O)n1cc(NC(=O)N2[C@@H]3C[C@@H]3C[C@H]2C(=O)Nc2cncc(C(F)(F)F)n2)c2ccccc21` [Example 36, (1R,3S,5R)-2-Aza-bicyclo[3.1.0]hexane-2,3-dicarboxylic acid 2-[(1-carbamoyl-1H-indol-3-yl)-amide] 3-[(6-trifluoromethyl-pyrazin-2-yl)-amide]], the IC50 was 55 nM.
For the compound `CC(=O)c1nn(CC(=O)N2[C@@H]3C[C@@H]3C[C@H]2C(=O)Nc2cncc(C(F)(F)F)n2)c2cnccc12` [Example 17, (1R,3S,5R)-2-[2-(3-Acetyl-pyrazolo[3,4-c]pyridin-1-yl)-acetyl]-2-aza-bicyclo[3.1.0]hexane-3-carboxylic acid (6-trifluoromethyl-pyrazin-2-yl)-amide], the IC50 came out at 64 nM.
With `C[C@@]1(F)C[C@@H](C(=O)Nc2cccc(Br)n2)N(C(=O)Cn2nc(C(N)=O)c3ccccc32)C1` [Example 19, 1-{2-[(2S,4R)-2-(6-Bromo-pyridin-2-ylcarbamoyl)-4-fluoro-4-methyl-pyrrolidin-1-yl]-2-oxo-ethyl}-1H-indazole-3-carboxylic acid amide], the IC50 was 11 nM.
On to `NC(=O)c1nn(CC(=O)N2[C@@H]3C[C@@H]3C[C@H]2C(=O)Nc2cccc(Br)n2)c2cnc(C3CC3)cc12` [Example 5, 1-{2-[(1R,3S,5R)-3-(6-Bromo-pyridin-2-ylcarbamoyl)-2-aza-bicyclo[3.1.0]hex-2-yl]-2-oxo-ethyl}-5-cyclopropyl-1H-pyrazolo[3,4-c]pyridine-3-carboxylic acid amide], for which the IC50 is 4 nM.
In the case of `NC(=O)n1cc(NC(=O)N2C[C@H](F)[C@H](F)[C@H]2C(=O)Nc2cccc(Br)n2)c2ccccc21` [Example 38, (2R,3R,4S)-N2-(6-bromopyridin-2-yl)-N1-(1-carbamoyl-1H-indol-3-yl)-3,4-difluoropyrrolidine-1,2-dicarboxamide], the IC50 was 10 nM.
